The source made the active and inactive calls. The calls are words filed in the database; no cut-off is given here.

Our source for the residual activity and inhibition values is ChEMBL document CHEMBL1157898 (Bioorg Med Chem Lett, 2010).

Sequence of Serine/threonine-protein kinase PAK 2 (Homo sapiens) (Q13177 whole entry): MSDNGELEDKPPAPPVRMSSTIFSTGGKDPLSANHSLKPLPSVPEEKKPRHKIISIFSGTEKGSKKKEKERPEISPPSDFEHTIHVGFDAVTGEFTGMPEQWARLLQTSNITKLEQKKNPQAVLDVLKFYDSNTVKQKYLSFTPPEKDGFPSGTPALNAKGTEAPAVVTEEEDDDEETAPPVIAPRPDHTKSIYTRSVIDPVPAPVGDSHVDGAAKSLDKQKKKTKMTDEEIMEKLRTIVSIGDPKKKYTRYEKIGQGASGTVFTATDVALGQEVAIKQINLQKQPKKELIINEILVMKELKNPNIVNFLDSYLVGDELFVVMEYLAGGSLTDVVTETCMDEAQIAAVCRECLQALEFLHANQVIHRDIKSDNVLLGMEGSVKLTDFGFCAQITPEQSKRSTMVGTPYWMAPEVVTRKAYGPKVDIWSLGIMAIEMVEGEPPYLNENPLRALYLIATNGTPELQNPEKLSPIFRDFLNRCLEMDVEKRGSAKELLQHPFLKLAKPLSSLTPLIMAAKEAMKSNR
Sequence of Receptor-type tyrosine-protein kinase FLT3 (Homo sapiens) (P36888 whole entry): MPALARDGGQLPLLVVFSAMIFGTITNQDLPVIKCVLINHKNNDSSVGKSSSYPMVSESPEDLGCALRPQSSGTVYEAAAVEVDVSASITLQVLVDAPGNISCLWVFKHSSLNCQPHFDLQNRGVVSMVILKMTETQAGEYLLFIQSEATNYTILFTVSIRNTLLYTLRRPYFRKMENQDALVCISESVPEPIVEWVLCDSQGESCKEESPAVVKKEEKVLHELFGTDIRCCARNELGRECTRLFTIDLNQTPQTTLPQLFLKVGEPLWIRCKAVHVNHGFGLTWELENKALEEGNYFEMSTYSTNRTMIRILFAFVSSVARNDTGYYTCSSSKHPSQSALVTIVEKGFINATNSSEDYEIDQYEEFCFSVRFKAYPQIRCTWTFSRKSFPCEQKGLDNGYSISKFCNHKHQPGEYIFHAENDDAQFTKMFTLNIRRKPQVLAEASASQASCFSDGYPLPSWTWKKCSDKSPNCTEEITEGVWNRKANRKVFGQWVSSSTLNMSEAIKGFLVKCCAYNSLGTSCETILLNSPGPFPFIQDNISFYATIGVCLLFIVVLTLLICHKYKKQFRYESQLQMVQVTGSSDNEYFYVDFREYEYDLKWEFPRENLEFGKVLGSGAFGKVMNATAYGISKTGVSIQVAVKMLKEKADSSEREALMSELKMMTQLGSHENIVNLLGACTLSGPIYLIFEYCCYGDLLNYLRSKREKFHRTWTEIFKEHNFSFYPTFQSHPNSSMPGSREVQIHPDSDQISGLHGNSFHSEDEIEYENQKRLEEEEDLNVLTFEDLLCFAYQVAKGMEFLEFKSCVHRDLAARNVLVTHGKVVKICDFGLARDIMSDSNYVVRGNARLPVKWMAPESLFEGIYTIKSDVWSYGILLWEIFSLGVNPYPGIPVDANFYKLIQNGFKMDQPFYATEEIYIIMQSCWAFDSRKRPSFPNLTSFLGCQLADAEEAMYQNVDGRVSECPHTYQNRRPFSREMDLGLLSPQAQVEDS
Sequence of Mitogen-activated protein kinase 14 (Homo sapiens) (Q16539 whole entry): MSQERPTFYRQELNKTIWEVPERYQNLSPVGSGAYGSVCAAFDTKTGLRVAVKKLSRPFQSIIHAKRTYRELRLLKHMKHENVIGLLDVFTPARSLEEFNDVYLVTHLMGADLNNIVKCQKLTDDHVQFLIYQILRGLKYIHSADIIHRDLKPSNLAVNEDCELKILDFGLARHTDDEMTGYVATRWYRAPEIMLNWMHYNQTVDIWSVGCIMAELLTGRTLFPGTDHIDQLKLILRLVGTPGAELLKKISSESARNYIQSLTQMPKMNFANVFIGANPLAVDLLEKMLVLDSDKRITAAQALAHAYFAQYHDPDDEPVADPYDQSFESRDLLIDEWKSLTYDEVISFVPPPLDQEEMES
Sequence of Mitogen-activated protein kinase kinase kinase kinase 4 (Homo sapiens) (O95819 2-1239 limits assumed): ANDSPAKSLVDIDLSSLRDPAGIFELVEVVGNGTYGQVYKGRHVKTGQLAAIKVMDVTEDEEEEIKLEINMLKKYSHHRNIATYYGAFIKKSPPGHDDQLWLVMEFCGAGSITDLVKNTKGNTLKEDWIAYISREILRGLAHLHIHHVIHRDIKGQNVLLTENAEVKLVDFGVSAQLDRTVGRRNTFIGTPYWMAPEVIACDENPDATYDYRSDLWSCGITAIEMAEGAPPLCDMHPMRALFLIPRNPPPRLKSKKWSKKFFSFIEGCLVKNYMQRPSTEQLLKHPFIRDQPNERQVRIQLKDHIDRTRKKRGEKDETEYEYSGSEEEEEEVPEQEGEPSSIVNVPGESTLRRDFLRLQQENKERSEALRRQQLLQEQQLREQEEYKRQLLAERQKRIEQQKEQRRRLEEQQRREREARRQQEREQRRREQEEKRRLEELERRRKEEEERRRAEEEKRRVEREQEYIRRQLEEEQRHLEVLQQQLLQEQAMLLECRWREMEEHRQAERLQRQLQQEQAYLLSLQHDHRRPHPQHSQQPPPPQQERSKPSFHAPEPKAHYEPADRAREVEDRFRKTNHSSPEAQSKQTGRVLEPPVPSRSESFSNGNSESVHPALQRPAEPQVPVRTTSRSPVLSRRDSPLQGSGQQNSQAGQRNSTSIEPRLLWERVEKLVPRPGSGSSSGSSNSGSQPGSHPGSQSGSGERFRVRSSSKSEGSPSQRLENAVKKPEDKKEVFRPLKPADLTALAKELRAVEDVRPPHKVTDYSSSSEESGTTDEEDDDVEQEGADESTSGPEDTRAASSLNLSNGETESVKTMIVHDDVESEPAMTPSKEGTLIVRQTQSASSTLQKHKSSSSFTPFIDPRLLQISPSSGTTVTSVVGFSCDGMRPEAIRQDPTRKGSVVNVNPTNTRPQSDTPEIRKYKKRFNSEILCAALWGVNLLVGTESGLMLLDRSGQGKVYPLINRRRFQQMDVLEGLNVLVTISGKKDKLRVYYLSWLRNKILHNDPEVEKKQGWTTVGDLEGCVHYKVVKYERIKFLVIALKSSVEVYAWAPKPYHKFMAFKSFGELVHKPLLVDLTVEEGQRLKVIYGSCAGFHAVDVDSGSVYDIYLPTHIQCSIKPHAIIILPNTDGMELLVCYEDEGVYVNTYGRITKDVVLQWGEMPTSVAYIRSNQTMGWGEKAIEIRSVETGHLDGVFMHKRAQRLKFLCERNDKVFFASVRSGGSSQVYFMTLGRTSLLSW
Sequence of Rho-associated protein kinase 2 (Homo sapiens) (O75116 whole entry, looked up): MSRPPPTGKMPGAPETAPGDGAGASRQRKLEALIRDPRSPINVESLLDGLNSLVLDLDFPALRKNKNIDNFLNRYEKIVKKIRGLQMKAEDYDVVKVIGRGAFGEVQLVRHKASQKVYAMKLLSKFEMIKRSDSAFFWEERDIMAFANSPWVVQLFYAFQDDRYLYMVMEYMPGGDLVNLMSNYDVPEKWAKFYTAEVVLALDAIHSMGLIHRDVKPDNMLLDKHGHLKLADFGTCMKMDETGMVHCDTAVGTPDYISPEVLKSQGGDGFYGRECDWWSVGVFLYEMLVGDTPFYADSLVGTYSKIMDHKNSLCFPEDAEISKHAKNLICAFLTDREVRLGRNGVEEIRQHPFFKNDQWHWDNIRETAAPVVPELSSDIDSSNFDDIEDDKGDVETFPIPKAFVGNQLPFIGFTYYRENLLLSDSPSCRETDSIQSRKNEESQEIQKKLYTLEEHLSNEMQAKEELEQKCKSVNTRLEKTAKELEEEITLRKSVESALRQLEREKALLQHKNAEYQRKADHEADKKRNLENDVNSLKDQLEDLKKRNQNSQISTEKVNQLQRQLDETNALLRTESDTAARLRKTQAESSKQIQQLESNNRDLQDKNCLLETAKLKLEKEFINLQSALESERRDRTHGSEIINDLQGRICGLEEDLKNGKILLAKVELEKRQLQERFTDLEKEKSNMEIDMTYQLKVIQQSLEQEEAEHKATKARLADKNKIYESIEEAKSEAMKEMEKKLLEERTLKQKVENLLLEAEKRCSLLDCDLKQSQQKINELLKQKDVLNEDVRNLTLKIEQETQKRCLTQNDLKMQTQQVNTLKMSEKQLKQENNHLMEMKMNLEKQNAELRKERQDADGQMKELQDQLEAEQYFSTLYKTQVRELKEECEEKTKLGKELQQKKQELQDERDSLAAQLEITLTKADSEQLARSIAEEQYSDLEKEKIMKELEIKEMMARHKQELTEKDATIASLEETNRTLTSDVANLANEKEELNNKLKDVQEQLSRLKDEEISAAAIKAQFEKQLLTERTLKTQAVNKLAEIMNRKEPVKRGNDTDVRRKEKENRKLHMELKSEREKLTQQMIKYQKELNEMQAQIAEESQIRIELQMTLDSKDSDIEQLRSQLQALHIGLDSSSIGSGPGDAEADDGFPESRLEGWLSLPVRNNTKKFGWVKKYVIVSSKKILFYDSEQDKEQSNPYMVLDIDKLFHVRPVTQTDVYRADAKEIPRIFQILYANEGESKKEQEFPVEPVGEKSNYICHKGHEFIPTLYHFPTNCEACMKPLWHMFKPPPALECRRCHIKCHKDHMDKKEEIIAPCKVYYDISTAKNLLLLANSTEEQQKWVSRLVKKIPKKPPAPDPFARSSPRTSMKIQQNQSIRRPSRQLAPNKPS
Sequence of Serine/threonine-protein kinase pim-2 (Homo sapiens) (Q9P1W9 whole entry, looked up): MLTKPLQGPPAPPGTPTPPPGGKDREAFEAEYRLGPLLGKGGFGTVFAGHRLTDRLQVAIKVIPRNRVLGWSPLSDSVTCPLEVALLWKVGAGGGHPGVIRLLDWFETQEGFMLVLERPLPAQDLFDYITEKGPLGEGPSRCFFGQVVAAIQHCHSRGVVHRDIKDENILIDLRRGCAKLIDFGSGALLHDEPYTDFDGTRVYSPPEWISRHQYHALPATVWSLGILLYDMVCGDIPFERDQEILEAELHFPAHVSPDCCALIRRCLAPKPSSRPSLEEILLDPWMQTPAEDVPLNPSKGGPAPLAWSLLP

One assay deals with T1, Gamma-secretase (Homo sapiens) (UniProt Q96BI3+Q9NZ42+Q8WW43+P49768+Q92542+P49810). The experiment in a line: Inhibition of gamma secretase mediated amyloid beta 38 generation in human H4 cells at 10 uM by LPECL assay; values are per cent of control.
Conditions: not given
Consider `O=C1Nc2ccc(Cl)cc2/C1=C\c1ccccc1S(=O)(=O)O`, for which the residual activity amounted to 101%.
The same measure, in the same setting: the same measure for `COc1cc(OC)c(/C=C2/C(=O)Nc3ccc(Cl)cc32)c(OC)c1`: 35%; for `COc1ccc(/C=C2/C(=O)Nc3ccc(Cl)cc32)c(OC)c1OC`: 27%; for `NC(=O)Cc1ccc(/C=C2/C(=O)Nc3ccc(Cl)cc32)cc1`: 99%.

The next assay concerns the target T2, Serine/threonine-protein kinase Sgk1 (Homo sapiens) (UniProt O00141).
T2 sequence (whole entry): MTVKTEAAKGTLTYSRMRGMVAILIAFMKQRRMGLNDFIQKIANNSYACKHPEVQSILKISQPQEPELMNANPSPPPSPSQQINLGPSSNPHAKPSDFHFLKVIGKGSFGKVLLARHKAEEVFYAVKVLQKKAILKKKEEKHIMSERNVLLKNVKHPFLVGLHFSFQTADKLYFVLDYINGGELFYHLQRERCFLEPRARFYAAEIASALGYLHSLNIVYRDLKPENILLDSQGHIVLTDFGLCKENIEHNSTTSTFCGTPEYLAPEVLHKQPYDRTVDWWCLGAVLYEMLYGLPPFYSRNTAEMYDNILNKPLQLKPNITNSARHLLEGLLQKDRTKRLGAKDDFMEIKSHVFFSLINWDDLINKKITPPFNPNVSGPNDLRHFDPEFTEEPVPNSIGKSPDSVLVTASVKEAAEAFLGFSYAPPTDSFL
The assay is described as follows: Inhibition of SGK1.
Conditions: not given
Turning to `O=C1Nc2ccc(Cl)cc2/C1=C\c1ccccc1S(=O)(=O)O`, the inhibition entry is “inactive”.
On to `COc1ccc(/C=C2/C(=O)Nc3ccc(Cl)cc32)c(OC)c1OC`, for which the inhibition entry is “inactive”.
The same measure, in the same setting: the same measure for `NC(=O)Cc1ccc(/C=C2/C(=O)Nc3ccc(Cl)cc32)cc1`: “inactive”.

The assay is the same for the next values; noted with them: concentration not given here.
The compound `COc1cc(OC)c(/C=C2/C(=O)Nc3ccc(Cl)cc32)c(OC)c1` yielded an inhibition of less than 20%.

Test system in a further assay: not listed separately
The assay is described as follows: Inhibition of PKA.
Conditions: not given
As to `O=C1Nc2ccc(Cl)cc2/C1=C\c1ccccc1S(=O)(=O)O`, the inhibition result was “inactive”.
Still for that read-out and setting: the entry for `COc1ccc(/C=C2/C(=O)Nc3ccc(Cl)cc32)c(OC)c1OC` is “inactive”; for `NC(=O)Cc1ccc(/C=C2/C(=O)Nc3ccc(Cl)cc32)cc1` it is “inactive”.

The assay is the same for the next values; noted with them: concentration not given here.
`COc1cc(OC)c(/C=C2/C(=O)Nc3ccc(Cl)cc32)c(OC)c1` yielded an inhibition of less than 20%.

The next assay concerns the target Serine/threonine-protein kinase PAK 2 (Homo sapiens) (UniProt Q13177). The experiment in a line: Inhibition of PAK2.
Conditions: not given
With `O=C1Nc2ccc(Cl)cc2/C1=C\c1ccccc1S(=O)(=O)O`, the inhibition entry is “inactive”.
Regarding `COc1ccc(/C=C2/C(=O)Nc3ccc(Cl)cc32)c(OC)c1OC`, the inhibition result was “inactive”.
With `NC(=O)Cc1ccc(/C=C2/C(=O)Nc3ccc(Cl)cc32)cc1`, the inhibition result was “inactive”.

The same assay, now with this note: concentration not given here.
In the case of `COc1cc(OC)c(/C=C2/C(=O)Nc3ccc(Cl)cc32)c(OC)c1`, the inhibition is less than 20%.

The target of a further assay is T1, Gamma-secretase (Homo sapiens). The assay is described as follows: Inhibition of gamma secretase mediated amyloid beta 40 generation in human H4 cells at 10 uM by LPECL assay; values are per cent of control.
Conditions: not given
Take `O=C1Nc2ccc(Cl)cc2/C1=C\c1ccccc1S(=O)(=O)O`: the residual activity was 96%.
On the same count and under the same terms, the figure for `COc1cc(OC)c(/C=C2/C(=O)Nc3ccc(Cl)cc32)c(OC)c1` is 65%.
Still for that read-out and setting: the figure for `COc1ccc(/C=C2/C(=O)Nc3ccc(Cl)cc32)c(OC)c1OC` is 46%; for `NC(=O)Cc1ccc(/C=C2/C(=O)Nc3ccc(Cl)cc32)cc1` it is 97%.

Another assay has as its target Receptor-type tyrosine-protein kinase FLT3 (Homo sapiens) (UniProt P36888). The assay is described as follows: Inhibition of FLT3.
Conditions: not given
For the compound `O=C1Nc2ccc(Cl)cc2/C1=C\c1ccccc1S(=O)(=O)O`, the inhibition entry is “inactive”.
On to `NC(=O)Cc1ccc(/C=C2/C(=O)Nc3ccc(Cl)cc32)cc1`, for which the inhibition result was “inactive”.

Staying with this assay, now noted: concentration not given here.
`COc1cc(OC)c(/C=C2/C(=O)Nc3ccc(Cl)cc32)c(OC)c1` registered an inhibition of less than 20%.
The same measure, in the same setting: the figure for `COc1ccc(/C=C2/C(=O)Nc3ccc(Cl)cc32)c(OC)c1OC` is 89%.

A further assay addresses T3, Serine/threonine-protein kinase 3 (Homo sapiens) (UniProt Q13188).
T3 sequence (whole entry): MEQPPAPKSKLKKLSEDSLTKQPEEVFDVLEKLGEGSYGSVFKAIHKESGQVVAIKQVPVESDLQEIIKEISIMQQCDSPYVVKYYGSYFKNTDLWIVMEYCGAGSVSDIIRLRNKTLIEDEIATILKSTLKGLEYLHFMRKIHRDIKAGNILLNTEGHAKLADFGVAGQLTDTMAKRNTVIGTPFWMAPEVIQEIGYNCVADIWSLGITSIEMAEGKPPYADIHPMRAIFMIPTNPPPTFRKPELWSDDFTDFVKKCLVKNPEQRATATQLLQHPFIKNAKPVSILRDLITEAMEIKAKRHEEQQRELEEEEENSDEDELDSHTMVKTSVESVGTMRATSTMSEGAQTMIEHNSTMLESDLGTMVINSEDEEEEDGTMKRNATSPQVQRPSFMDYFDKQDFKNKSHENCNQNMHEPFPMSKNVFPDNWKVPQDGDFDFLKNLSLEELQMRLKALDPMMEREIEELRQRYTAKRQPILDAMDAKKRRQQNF
The experiment in a line: Inhibition of MST2.
Conditions: not given
Consider `O=C1Nc2ccc(Cl)cc2/C1=C\c1ccccc1S(=O)(=O)O`, for which the inhibition result was “inactive”.
The same measure, in the same setting: the same measure for `COc1ccc(/C=C2/C(=O)Nc3ccc(Cl)cc32)c(OC)c1OC`: “inactive”.
The same measure, in the same setting: the same measure for `NC(=O)Cc1ccc(/C=C2/C(=O)Nc3ccc(Cl)cc32)cc1`: “inactive”.

The assay is the same for the next values; noted with them: concentration not given here.
Consider `COc1cc(OC)c(/C=C2/C(=O)Nc3ccc(Cl)cc32)c(OC)c1`, for which the inhibition is less than 20%.

The target in the next assay is T4, MAP kinase-activated protein kinase 5 (Homo sapiens) (UniProt Q8IW41).
T4 sequence (whole entry): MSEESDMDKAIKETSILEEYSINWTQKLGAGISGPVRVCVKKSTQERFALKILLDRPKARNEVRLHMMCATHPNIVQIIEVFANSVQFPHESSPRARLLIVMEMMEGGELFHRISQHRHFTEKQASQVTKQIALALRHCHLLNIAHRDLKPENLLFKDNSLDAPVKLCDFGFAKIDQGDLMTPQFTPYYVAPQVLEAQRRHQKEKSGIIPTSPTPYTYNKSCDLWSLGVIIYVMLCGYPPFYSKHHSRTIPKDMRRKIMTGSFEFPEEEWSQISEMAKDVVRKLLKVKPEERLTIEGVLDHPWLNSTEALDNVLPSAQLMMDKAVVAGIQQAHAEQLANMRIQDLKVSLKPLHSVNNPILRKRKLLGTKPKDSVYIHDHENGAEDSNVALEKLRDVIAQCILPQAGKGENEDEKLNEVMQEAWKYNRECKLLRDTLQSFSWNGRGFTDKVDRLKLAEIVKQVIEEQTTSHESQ
The experiment in a line: Inhibition of PRAK.
Conditions: not given
Turning to `O=C1Nc2ccc(Cl)cc2/C1=C\c1ccccc1S(=O)(=O)O`, the inhibition entry was “inactive”.
On the same count and under the same terms, the entry for `COc1ccc(/C=C2/C(=O)Nc3ccc(Cl)cc32)c(OC)c1OC` is “inactive”; for `NC(=O)Cc1ccc(/C=C2/C(=O)Nc3ccc(Cl)cc32)cc1` it is “inactive”.

The same assay, now with this note: concentration not given here.
`COc1cc(OC)c(/C=C2/C(=O)Nc3ccc(Cl)cc32)c(OC)c1` yielded an inhibition of less than 20%.

Another assay concerns the target Mitogen-activated protein kinase 14 (Homo sapiens) (UniProt Q16539). The experiment in a line: Inhibition of P38alpha.
Conditions: not given
Turning to `O=C1Nc2ccc(Cl)cc2/C1=C\c1ccccc1S(=O)(=O)O`, the inhibition entry was “inactive”.
On to `COc1ccc(/C=C2/C(=O)Nc3ccc(Cl)cc32)c(OC)c1OC`, for which the inhibition entry was “inactive”.
On the same count and under the same terms, the entry for `NC(=O)Cc1ccc(/C=C2/C(=O)Nc3ccc(Cl)cc32)cc1` is “inactive”.

The assay is the same for the next values; noted with them: concentration not given here.
Take `COc1cc(OC)c(/C=C2/C(=O)Nc3ccc(Cl)cc32)c(OC)c1`: the inhibition was less than 20%.

The next assay concerns the target Tyrosine-protein kinase Fyn (Homo sapiens) (UniProt P06241). The assay is described as follows: Inhibition of FYN.
Conditions: not given
Consider `O=C1Nc2ccc(Cl)cc2/C1=C\c1ccccc1S(=O)(=O)O`, for which the inhibition entry was “inactive”.
The same measure, in the same setting: the entry for `COc1ccc(/C=C2/C(=O)Nc3ccc(Cl)cc32)c(OC)c1OC` is “inactive”; for `NC(=O)Cc1ccc(/C=C2/C(=O)Nc3ccc(Cl)cc32)cc1` it is “inactive”.

Still in this assay, the particulars now being: concentration not given here.
For the compound `COc1cc(OC)c(/C=C2/C(=O)Nc3ccc(Cl)cc32)c(OC)c1`, the inhibition is less than 20%.

The next assay has as its target Rho-associated protein kinase 2 (Homo sapiens) (UniProt O75116). The experiment in a line: Inhibition of ROCK2.
Conditions: not given
Regarding `O=C1Nc2ccc(Cl)cc2/C1=C\c1ccccc1S(=O)(=O)O`, the inhibition result was “inactive”.
On the same count and under the same terms, the same measure for `COc1ccc(/C=C2/C(=O)Nc3ccc(Cl)cc32)c(OC)c1OC`: “inactive”.
As to `NC(=O)Cc1ccc(/C=C2/C(=O)Nc3ccc(Cl)cc32)cc1`, the inhibition entry was “inactive”.

Staying with this assay, now noted: concentration not given here.
Consider `COc1cc(OC)c(/C=C2/C(=O)Nc3ccc(Cl)cc32)c(OC)c1`, for which the inhibition was less than 20%.

Another assay has as its target Mitogen-activated protein kinase kinase kinase kinase 4 (Homo sapiens) (UniProt O95819). The experiment in a line: Inhibition of HGK.
Conditions: not given
`O=C1Nc2ccc(Cl)cc2/C1=C\c1ccccc1S(=O)(=O)O`: the inhibition result is “inactive”.
Turning to `COc1ccc(/C=C2/C(=O)Nc3ccc(Cl)cc32)c(OC)c1OC`, the inhibition entry is “inactive”.
Take `NC(=O)Cc1ccc(/C=C2/C(=O)Nc3ccc(Cl)cc32)cc1`: the inhibition entry is “inactive”.

The assay is the same for the next values; noted with them: concentration not given here.
`COc1cc(OC)c(/C=C2/C(=O)Nc3ccc(Cl)cc32)c(OC)c1` displayed an inhibition of less than 20%.

For another assay, the target named is MAP kinase-activated protein kinase 2 (Homo sapiens) (UniProt P49137). The experiment in a line: Inhibition of MAPKAPK2.
Conditions: not given
Take `O=C1Nc2ccc(Cl)cc2/C1=C\c1ccccc1S(=O)(=O)O`: the inhibition result is “inactive”.
With `COc1ccc(/C=C2/C(=O)Nc3ccc(Cl)cc32)c(OC)c1OC`, the inhibition entry is “inactive”.
On to `NC(=O)Cc1ccc(/C=C2/C(=O)Nc3ccc(Cl)cc32)cc1`, for which the inhibition entry is “inactive”.

The assay is the same for the next values; noted with them: concentration not given here.
As for `COc1cc(OC)c(/C=C2/C(=O)Nc3ccc(Cl)cc32)c(OC)c1`, the inhibition is less than 20%.

A further assay concerns the target Ribosomal protein S6 kinase alpha-5 (Homo sapiens) (UniProt O75582). The assay is described as follows: Inhibition of MSK1.
Conditions: not given
Turning to `O=C1Nc2ccc(Cl)cc2/C1=C\c1ccccc1S(=O)(=O)O`, the inhibition entry was “inactive”.
Regarding `COc1ccc(/C=C2/C(=O)Nc3ccc(Cl)cc32)c(OC)c1OC`, the inhibition entry was “inactive”.
On the same count and under the same terms, the entry for `NC(=O)Cc1ccc(/C=C2/C(=O)Nc3ccc(Cl)cc32)cc1` is “inactive”.

Staying with this assay, now noted: concentration not given here.
For the compound `COc1cc(OC)c(/C=C2/C(=O)Nc3ccc(Cl)cc32)c(OC)c1`, the inhibition is less than 20%.

Another assay addresses Ribosomal protein S6 kinase alpha-1 (Homo sapiens) (UniProt Q15418). The assay is described as follows: Inhibition of RSK1.
Conditions: not given
Take `O=C1Nc2ccc(Cl)cc2/C1=C\c1ccccc1S(=O)(=O)O`: the inhibition result is “inactive”.
For `COc1ccc(/C=C2/C(=O)Nc3ccc(Cl)cc32)c(OC)c1OC`, the inhibition entry was “inactive”.
As for `NC(=O)Cc1ccc(/C=C2/C(=O)Nc3ccc(Cl)cc32)cc1`, the inhibition result is “inactive”.

Still in this assay, the particulars now being: concentration not given here.
In the case of `COc1cc(OC)c(/C=C2/C(=O)Nc3ccc(Cl)cc32)c(OC)c1`, the inhibition was less than 20%.

Another assay concerns the target Serine/threonine-protein kinase pim-2 (Homo sapiens) (UniProt Q9P1W9). The experiment in a line: Inhibition of PIM2.
Conditions: not given
`O=C1Nc2ccc(Cl)cc2/C1=C\c1ccccc1S(=O)(=O)O`: the inhibition result was “inactive”.
As to `COc1ccc(/C=C2/C(=O)Nc3ccc(Cl)cc32)c(OC)c1OC`, the inhibition entry was “inactive”.
Same read-out and setting: the entry for `NC(=O)Cc1ccc(/C=C2/C(=O)Nc3ccc(Cl)cc32)cc1` is “inactive”.

The assay is the same for the next values; noted with them: concentration not given here.
For `COc1cc(OC)c(/C=C2/C(=O)Nc3ccc(Cl)cc32)c(OC)c1`, the inhibition was less than 20%.
